Laboratory results taken from US20050130979A1, “Treatment of demyelinating disorders” (Eisai Co., Ltd., priority 1998, published 2005).
“Also recorded” adds a separate entry of the source.

Key:
[1] = tested on: chronic EAE in the Biozzi mouse; assay: Chronic-active EAE in Biozzi mice, clinical disease scoring; type: in vivo
Lewis rat acute EAE = assay: Acute-active EAE in Lewis rats (MBP immunisation), clinical disease scoring and weight; type: in vivo
Description: Female Lewis rats (205+10 g) obtained from Charles River, Kent, UK, were housed in pairs under environmentally controlled conditions (6:00 a.m.-6:00 p.m. light/dark cycle; 22-24° C.; 45-55% humidity) and allowed free access to food and water. […] Female Biozzi mice (20±5 g) obtained from Harlan, UK, were housed under the conditions described above. Experimental groups consisted of 7-10 animals.
Rats were immunised in each hind foot with 50 μl of inoculum containing 50 μg guinea pig myelin basic protein (MBP, prepared by the method of Dunkley and Carnegie (1974); final concentration […]), emulsified in Freund's complete adjuvant (CFA; Sigma, UK) containing Mycobacterium tuberculosis H37Ra (final concentration 5.5 mg/ml; Difco Laboratories, UK).
Animals were weighed and monitored daily and clinical disease scored as (0) no clinical signs; (1) flaccid tail and weight loss; (2) hind limb hypotonia with further weight loss; (3) complete hind limb paralysis; (4) paraplegia and (5) death. […] During the period of compound administration (10-16 days post immunisation; dpi) animals were scored 15 h after injection of vehicle or NBQX to avoid any acute effect of treatment on disease score.
NBQX was initially dissolved in NaOH and diluted with water. pH was adjusted with HCl. Rats were injected i.p. twice daily (9 a.m. and 5 p.m.) on days 10 to 16 post immunisation with either vehicle or NBQX in the dose of 30 mg/kg. Mice were injected i.p. either twice daily (9 a.m. and 5 p.m.) on days 10 to 16 post immunisation or once daily (9 a.m.) on days 26 to 42 post immunisation with either vehicle or NBQX in the dose of 30 mg/kg.
GYKI53773 was suspended in 5% cremophore in saline. Rats were injected i.p. twice daily (9 a.m. and 5 p.m.) on days 10 to 16 post immunisation with either vehicle or GYKM53773 in the dose of 30 mg/kg.
GYKM52466 was suspended in 5% cremophore in water. Rats were injected i.p. twice daily (9 a.m. and 5 p.m.) on days 10 to 16 post immunisation with either vehicle or GYKI52466 in the dose of 30 mg/kg.
BIIR561 was suspended in 5% cremophore in water. Rats were injected i.p. twice daily (9 a.m. and 5 p.m.) on days 10 to 16 post immunisation with either vehicle or BIIR561 in the dose of 30 mg/kg.
CP465022 was suspended in 5% cremophore in water. Rats were injected i.p. twice daily (9 a.m. and 5 p.m.) on days 10 to 16 post immunisation with either vehicle or CP465022 in the dose of 10 mg/kg.
MPQX was initially dissolved in NaOH and diluted with water. pH was adjusted with HCl. Rats were injected i.p. twice daily (9 a.m. and 5 p.m.) on days 10 to 16 post immunisation with either vehicle or MPQX in the dose of 10 mg/kg.

[2] = Lewis rat acute EAE, NBQX 30 mg/kg i.p. twice daily 10-16 dpi
[3] = rats, 30 mg/kg i.p. twice daily 10-16 dpi

Q: For `NS(=O)(=O)c1cccc2c1c([N+](=O)[O-])cc1nc(O)c(O)nc12` [NBQX, 2,3-dihydroxy6-nitro-7-sulfamoylbenzo-(F)quinoxaline], which “disease severity between dpi 28 to 48 (in words)” value ([1]; Biozzi mice, NBQX 30 mg/kg i.p. once daily for 17 days commencing on dpi 26, P<0.05) is on record?
A: The value was “reduced disease severity”.

Q: What about the “disease severity between dpi 10 to 48 (in words)” value ([1]; Biozzi mice, NBQX 30 mg/kg i.p. twice daily for 7 days starting on dpi 10, P<0.001) of the same compound?
A: The value was “improved neurological outcome reducing disease severity”.

Q: What about the “severity of paralysis during chronic EAE (in words)” value ([1]; NBQX 30 mg/kg i.p., twice daily 10-16 dpi (A) or once daily 26-42 dpi (B)) of the same compound?
A: The value was “reduces the severity of paralysis”.

Q: And the “neurological deficit during chronic EAE (in words)” value ([1]; mice, following treatment)?
A: The value was “reduction in neurological deficit”.

Q: And the “Incidence (%)” value (Lewis rat acute EAE; [2])?
A: The value was “(75) %”.

Q: And the “Incidence (animals with neurological deficit / group)” value (Lewis rat acute EAE; [2])?
A: Its value is 4/10.

Q: And the “onset of weight loss” value (Lewis rat acute EAE; NBQX 30 mg/kg i.p. twice daily 10-16 dpi, p<0.01)?
A: Its value is 13 dpi.

Q: And the “rats in which development of paralysis was completely prevented” value (Lewis rat acute EAE; NBQX 30 mg/kg i.p. twice daily from day 10 to 16 post immunisation)?
A: Its value is 6 out of 10.

Q: What about the Duration (Lewis rat acute EAE; mean, 30 mg/kg i.p. twice daily 10-16 dpi) of the same compound?
A: Its Duration is 1.5 days.

Q: And the Onset (Lewis rat acute EAE; mean, n = 4 for NBQX, 30 mg/kg i.p. twice daily 10-16 dpi)?
A: Its Onset is 11.8 d.p.i.

Q: And the “Peak Disease Score” value (Lewis rat acute EAE; mean, scale 0-5, 30 mg/kg i.p. twice daily 10-16 dpi)?
A: The value was 0.7.

Q: What about the “Cumulative Disease Score” value (Lewis rat acute EAE; mean, summation of individual daily disease scores, 30 mg/kg i.p. twice daily 10-16 dpi) of the same compound?
A: The value was 2.4.

Q: What about the “Weight Loss” value (Lewis rat acute EAE; mean, weight on cessation of treatment (16 dpi) as percent of maximum weight before disease onset, 30 mg/kg i.p. twice daily) of the same compound?
A: The value was 14%.

Q: And the “neurological deficits during acute EAE (in words)” value (Lewis rat acute EAE; rats, following treatment)?
A: The value was “reduction in neurological deficits”.

Q: And the “cumulative disease score relative to vehicle treatment (in words)” value (Lewis rat acute EAE; [3])?
A: The value was “significantly reduced”.

Q: What about the “disease duration relative to vehicle treatment (in words)” value (Lewis rat acute EAE; [3]) of the same compound?
A: Its value is “significantly reduced”.

Q: What about the “peak disease score relative to vehicle treatment (in words)” value (Lewis rat acute EAE; rats, 30 mg/kg i.p. twice daily 10-16 dpi, 30 mg/kg) of the same compound?
A: Its value is “significantly reduced”.

Q: What about the “severity of paralysis during EAE (in words)” value (Lewis rat acute EAE; rats, 30 mg/kg i.p. twice daily 10-16 dpi, vs vehicle) of the same compound?
A: The value was “reduces severity of paralysis”.

Q: And the “weight loss during the course of EAE (in words)” value (Lewis rat acute EAE; rats, NBQX 30 mg/kg i.p. twice daily 10-16 dpi, up to cessation of treatment (16 dpi))?
A: The value was “reduces weight loss; also recorded: decreasing the percent body weight lost”.
